Measurements published in patent US9260429B2, “Pyrido[3,4-B]indoles and methods of use” (Medivation Technologies, Inc., priority 2008, dated 2016).

Columns and labels:
[1] = target: T1, human recombinant histamine H1 receptor (Homo sapiens, UniProt P35367); assay: Histamine H1 radioligand binding ([3H]Pyrilamine); conditions: 1 μM; read-out: Binding data (Percentage Inhibition) Histamine Binding (1 μM) H1
T1 construct: expressed in transfected cells; host or cells: CHO cells
Protocol: To evaluate in radioligand binding assays the activity of compounds of the invention, human recombinant histamine H1 receptor expressed in Chinese hamster ovary (CHO) cells (De Backer, M. D. et al., Biochem. Biophys. Res. Comm. 197(3):1601, 1993) in a modified Tris-HCl buffer (50 mM Tris-HCl, pH 7.4, 2 mM MgCl2, 100 mM NaCl, 250 mM Sucrose) was used. Compounds of the invention were incubated with 1.2 nM [^3H]Pyrilamine for 180 minutes at 25° C. Non-specific binding was estimated in the presence of 1 μM pyrilamine. Receptor proteins were filtered and washed, the filters were then counted to determine [^3H]Pyrilamine specifically bound. […] Biochemical assay results are presented as the percent inhibition of specific binding in Table 3.

[2] = target: T2, human recombinant histamine H2 receptor (Homo sapiens, UniProt P25021); assay: Histamine H2 radioligand binding ([125I]Aminopotentidine); conditions: 1 μM; inhibition of specific [125I]Aminopotentidine binding; read-out: Binding data (Percentage Inhibition) Histamine Binding (1 μM) H2
T2 construct: expressed in transfected cells; host or cells: CHO-K1 cells
Protocol: To evaluate in radioligand binding assays the activity of compounds of the invention, human recombinant histamine H2 receptor expressed in Chinese hamster ovary (CHO) K1 cells (Ruat, M., Proc. Natl. Acad. Sci. USA. 87(5):1658, 1990) in a 50 mM Phosphate buffer, pH 7.4 was used. Compounds of the invention were incubated with 0.1 nM [^125I]Aminopotentidine for 120 minutes at 25° C. Non-specific binding was estimated in the presence of 3 μM Tiotidine. Receptor proteins were filtered and washed, the filters were then counted to determine [^125I]Aminopotentidine specifically bound. Compounds were screened at 1 μM or lower, using 1% DMSO as vehicle. Biochemical assay results are presented as the percent inhibition of specific binding in Table 3.

[3] = target: T3, human recombinant serotonin (5-Hydroxytryptamine) 5-HT2A receptor (Homo sapiens, UniProt P28223); assay: Serotonin 5-HT2A radioligand binding ([3H]Ketanserin); conditions: 1 h; read-out: Percent Inhibition of ligand binding Serotonin (1 μM ligand concentration) 5-HT2A
T3 construct: expressed in transfected cells; host or cells: CHO-K1 cells
Protocol: To evaluate in radioligand binding assays the activity of compounds of the invention, human recombinant serotonin (5-Hydroxytryptamine) 5-HT2A receptor expressed in Chinese hamster ovary (CHO-K1) cells (Bonhaus, D. W. et al. Br. J. Pharmacol. 115:622, 1995; Saucier, C. and Albert, P. R., J. Neurochem. 68:1998, 1997) in a 50 mM Tris-HCl buffer, pH 7.4, was used. Compounds of the invention were incubated with 0.5 nM [^3H]Ketanserin for 60 minutes at 25° C. Non-specific binding was estimated in the presence of 1 μM Mianserin. Receptor proteins were filtered and washed, the filters were then counted to determine [^3H]Ketanserin specifically bound. Compounds were screened at 1 μM or lower, using 1% DMSO as vehicle. Biochemical assay results are presented as the percent inhibition of specific binding in Table 5.

[4] = target: T4, human recombinant serotonin (5-Hydroxytryptamine) 5-HT2C receptor (Homo sapiens, UniProt P28335); assay: Serotonin 5-HT2C radioligand binding ([3H]Mesulergine); conditions: for inhibition at 1 µM: 1 h, read-out: Percent Inhibition of ligand binding Serotonin (1 μM ligand concentration) 5-HT2C
T4 construct: expressed in transfected cells; host or cells: CHO-K1 cells
T4 sequence (P28335 33-458): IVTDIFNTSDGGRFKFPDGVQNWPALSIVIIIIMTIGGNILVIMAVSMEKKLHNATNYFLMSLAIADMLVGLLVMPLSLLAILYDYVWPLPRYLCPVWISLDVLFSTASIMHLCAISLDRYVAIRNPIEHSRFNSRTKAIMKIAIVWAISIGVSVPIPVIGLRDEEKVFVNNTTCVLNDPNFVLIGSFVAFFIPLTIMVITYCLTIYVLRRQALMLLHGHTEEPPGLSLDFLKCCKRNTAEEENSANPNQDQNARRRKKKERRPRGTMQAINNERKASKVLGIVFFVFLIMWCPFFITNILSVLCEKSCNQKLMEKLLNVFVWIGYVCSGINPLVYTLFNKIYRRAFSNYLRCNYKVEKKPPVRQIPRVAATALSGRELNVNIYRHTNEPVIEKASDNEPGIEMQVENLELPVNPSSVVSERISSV
Protocol: Compounds of the invention were incubated with 1 nM [^3H]Mesulergine for 60 minutes at 25° C. Non-specific binding was estimated in the presence of 1 μM Mianserin. Receptor proteins were filtered and washed, the filters were then counted to determine [^3H]Mesulergine specifically bound. […] Biochemical assay results are presented as the percent inhibition of specific binding in Table 5.

[5] = target: T5, human recombinant serotonin (5-Hydroxytryptamine) 5-HT6 receptor (Homo sapiens, UniProt P50406); assay: Serotonin 5-HT6 radioligand binding ([3H]LSD); conditions: 2 h; read-out: Percent Inhibition of ligand binding Serotonin (1 μM ligand concentration) 5-HT6
T5 construct: expressed in transfected cells; host or cells: human HeLa cells
Protocol: To evaluate in radioligand binding assays the activity of compounds of the invention, human recombinant serotonin (5-Hydroxytryptamine) 5-HT6 receptor expressed in human HeLa cells (Monsma, F. J. Jr. et al., Mol. Pharmacol. 43:320, 1993) in a modified Tris-HCl buffer (50 mM Tris-HCl, pH 7.4, 150 mM NaCl, 2 mM Ascorbic Acid, 0.001% BSA) was used. Compounds of the invention were incubated with 1.5 nM [3H]Lysergic acid diethylamide (LSD) for 120 minutes at 37° C. Non-specific binding was estimated in the presence of […] Serotonin (5-HT). Receptor proteins were filtered and washed, the filters were then counted to determine [3H]LSD specifically bound. Compounds were screened at 1 μM or lower, using 1% DMSO as vehicle. Biochemical assay results are presented as the percent inhibition of specific binding in Table 5.

T5 sequence (P50406 whole entry): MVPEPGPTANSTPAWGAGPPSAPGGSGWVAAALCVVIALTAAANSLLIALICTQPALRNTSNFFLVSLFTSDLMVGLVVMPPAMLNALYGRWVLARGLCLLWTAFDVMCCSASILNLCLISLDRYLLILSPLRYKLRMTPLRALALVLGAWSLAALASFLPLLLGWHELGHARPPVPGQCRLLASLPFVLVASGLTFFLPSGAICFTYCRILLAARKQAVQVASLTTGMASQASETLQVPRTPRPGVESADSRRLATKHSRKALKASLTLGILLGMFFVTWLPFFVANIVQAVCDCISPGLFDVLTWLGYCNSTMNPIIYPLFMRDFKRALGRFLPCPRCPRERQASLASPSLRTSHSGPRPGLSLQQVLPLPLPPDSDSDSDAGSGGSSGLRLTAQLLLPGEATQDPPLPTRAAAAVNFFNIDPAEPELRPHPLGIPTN
T1 sequence (P35367 whole entry): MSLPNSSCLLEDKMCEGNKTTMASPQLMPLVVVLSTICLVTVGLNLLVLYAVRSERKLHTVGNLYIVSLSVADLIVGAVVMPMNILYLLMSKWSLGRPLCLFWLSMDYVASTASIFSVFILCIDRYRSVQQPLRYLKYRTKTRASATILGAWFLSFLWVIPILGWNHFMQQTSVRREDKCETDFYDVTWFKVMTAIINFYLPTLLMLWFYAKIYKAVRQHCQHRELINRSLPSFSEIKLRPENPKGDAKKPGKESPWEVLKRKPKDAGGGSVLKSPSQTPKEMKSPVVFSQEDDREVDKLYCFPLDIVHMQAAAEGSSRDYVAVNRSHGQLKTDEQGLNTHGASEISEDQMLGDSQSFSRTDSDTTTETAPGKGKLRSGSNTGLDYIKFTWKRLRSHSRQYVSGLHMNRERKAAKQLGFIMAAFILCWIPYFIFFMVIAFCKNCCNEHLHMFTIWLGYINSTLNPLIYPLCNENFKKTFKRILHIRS
T2 sequence (P25021 whole entry): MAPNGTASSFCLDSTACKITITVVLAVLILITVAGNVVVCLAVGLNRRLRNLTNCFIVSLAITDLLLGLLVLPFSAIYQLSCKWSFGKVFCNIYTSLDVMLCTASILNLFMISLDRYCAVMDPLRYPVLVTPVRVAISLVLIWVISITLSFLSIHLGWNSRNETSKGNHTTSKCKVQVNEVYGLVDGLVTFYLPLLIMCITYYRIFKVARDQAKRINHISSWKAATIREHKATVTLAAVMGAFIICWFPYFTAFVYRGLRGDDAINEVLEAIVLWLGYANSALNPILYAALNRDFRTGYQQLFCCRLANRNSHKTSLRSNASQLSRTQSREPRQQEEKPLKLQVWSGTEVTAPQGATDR
T3 sequence (P28223 whole entry): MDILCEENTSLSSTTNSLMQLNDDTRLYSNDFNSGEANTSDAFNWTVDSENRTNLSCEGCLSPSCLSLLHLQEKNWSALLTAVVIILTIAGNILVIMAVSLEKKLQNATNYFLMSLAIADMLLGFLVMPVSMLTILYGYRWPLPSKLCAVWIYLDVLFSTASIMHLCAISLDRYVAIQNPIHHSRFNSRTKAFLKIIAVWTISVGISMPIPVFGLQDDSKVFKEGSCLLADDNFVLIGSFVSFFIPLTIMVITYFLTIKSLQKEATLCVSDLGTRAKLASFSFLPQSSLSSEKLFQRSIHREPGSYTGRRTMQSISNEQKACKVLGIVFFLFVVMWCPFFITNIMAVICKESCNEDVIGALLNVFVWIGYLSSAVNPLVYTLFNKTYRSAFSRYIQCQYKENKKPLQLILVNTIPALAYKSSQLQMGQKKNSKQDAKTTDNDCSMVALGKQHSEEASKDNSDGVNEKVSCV

Compound | inhibition at 1 µM [1] [%] | inhibition at 1 µM [2] [%] | inhibition at 1 µM [3] [%] | inhibition at 1 µM [4] [%] | inhibition at 1 µM [5] [%] | Percent Inhibition of ligand binding Serotonin (1 μM ligand concentration) 5-HT2C [4] [%]
C/C(=C\n1c2c(c3cc(Cl)ccc31)CCN(C)C2C)c1ccccc1F (stereo not drawn) [Compound 168] | 85 | 64 | 94 | 96 | 71 | 
COC(=O)Cn1c2c(c3cc(Cl)ccc31)CCN(C)C2 [Compound 54, methyl 2-(6-chloro-2-methyl-3,4-dihydro-1H-pyrido[3,4-b]indol-9(2H)-yl)acetate] | 5 | 21 | 0 |  | 8 | −1
CN1CCc2c(n(CCC3CCCC3)c3ccc(Cl)cc23)C1 [Compound 35, 6-chloro-9-(2-cyclopentylethyl)-2,3,4,9-tetrahydro-2-methyl-1H-pyrido[3,4-b]indole] | 98 | 67 | 69 | 87 | 67 | 
CN1CCc2c(n(CC(C)(O)c3ccc(F)cc3)c3ccc(Cl)cc23)C1 (stereo not drawn) [Compound 62, 1-(6-chloro-2-methyl-3,4-dihydro-1H-pyrido[3,4-b]indol-9(2H)-yl)-2-(4-fluorophenyl)propan-2-ol] | 48 | 48 | 88 | 95 | 77 | 
CC1c2c(c3cc(Cl)ccc3n2C#Cc2ccc(F)cc2)CCN1C (stereo not drawn) [Compound 128] | 32 | 53 | 95 | 101 | 90 | 
CN1CCc2c(n(CC(=O)O)c3ccc(Cl)cc23)C1 [Compound 52, 2-(6-chloro-1,2,3,4-tetrahydro-2-methylpyrido[3,4-b]indol-9-yl)acetic acid] | 3 | -5 | -11 | -4 | -4 | 
CN1CCc2c(n(CC(=O)N(C)C3CCCCC3)c3ccc(Cl)cc23)C1 [Compound 18, 2-(6-chloro-1,2,3,4-tetrahydro-2-methylpyrido[3,4-b]indol-9-yl)-N-cyclohexyl-N-methylacetamide] | 10 | 7 | -1 | 3 | 1 | 
C/C(=C\n1c2c(c3cc(C)ccc31)CCN(C)C2C)c1ccc(Cl)cc1 (stereo not drawn) [Compound 161, 9-(2-(4-chlorophenyl)prop-1-enyl)-1,2,6-trimethyl-2,3,4,9-tetrahydro-1H-pyrido[3,4-b]indole] | 51 | 82 | 96 | 99 | 75 | 
CCC1c2c(c3cc(Cl)ccc3n2C#Cc2ccc(F)cc2)CCN1C (stereo not drawn) [Compound 129] | 8 | 26 | 85 | 107 | 22 | 
C/C(=C\n1c2c(c3cc(Cl)ccc31)CCN(C)C2)c1ccc(Cl)cc1 [Compound 98, 6-chloro-9-(2-(4-chlorophenyl)prop-1-enyl)-2-methyl-2,3,4,9-tetrahydro-1H-pyrido[3,4-b]indole] | 40 | 94 | 98 | 103 | 79 | 
C/C(=C\n1c2c(c3cc(Cl)ccc31)CCN(C)C2C)c1ccc(Cl)cc1 (stereo not drawn) [Compound 99, 6-chloro-9-(2-(4-chlorophenyl)prop-1-enyl)-1,2-dimethyl-2,3,4,9-tetrahydro-1H-pyrido[3,4-b]indole] | 65 | 62 | 86 | 97 | 69 | 
C/C(=C/n1c2c(c3cc(Cl)ccc31)CCN(C)C2C)c1ccccc1F (stereo not drawn) [Compound 167] | 64 | 51 | 88 | 95 | 55 | 
CC1c2c(c3cc(Cl)ccc3n2CCc2ccc(F)cc2)CCN1C (stereo not drawn) [Compound 81] | 80 | 67 | 93 | 88 | 96 | 
CCC1c2c(c3cc(C)ccc3n2C(=O)Cc2ccc(F)cc2)CCN1C (stereo not drawn) [Compound 159] | 5 | 20 | 89 | 103 | 46 | 
CN1CCc2c(n(CCc3ccc(F)cc3)c3ccc(Cl)cc23)C1 [Compound 3, 9-(4-fluorophenethyl)-6-chloro-2,3,4,9-tetrahydro-2-methyl-1H-pyrido[3,4-b]indole] | 83 | 51 |  | 90 | 100 | 
C#CCn1c2c(c3cc(Cl)ccc31)CCN(C)C2 [Compound 125, 6-chloro-2,3,4,9-tetrahydro-2-methyl-9-(prop-2-yn1)-1H-pyrido[3,4-b]indole] | 83 | 9 |  |  | 66 | 74
CC1CCN(C(=O)Cn2c3c(c4cc(Cl)ccc42)CCN(C)C3)CC1 [Compound 38, 2-(6-chloro-1,2,3,4-tetrahydro-2-methylpyrido[3,4-b]indol-9-yl)-1-(4-methylpiperidin-1-vyl)ethanone] | 16 | 3 |  | 14 | -2 | 
Cc1ccc2c(c1)c1c(n2CCc2ccc(C)nc2)CN(C)CC1 [Compound 1, 2,3,4,9-tetrahydro-2,6-dimethyl-9-(2-(6-methylpyridin-3-yl)ethyl)-1H-pyrido[3,4-b]indole] | 77 | 5 |  | 25 | 5 | 
Cc1ccc2c(c1)c1c(n2CCC2CCCCC2)CN(C)CC1 [Compound 2, 9-(2-cyclohexylethyl)-2,3,4,9-tetrahydro-2,6-dimethyl-1H-pyrido[3,4-b]indole] | 95 | 71 |  | 84 | 58 | 
